In ChEMBL document CHEMBL3286294, “Buthionine sulfoximine diverts the melanogenesis pathway toward the production of more soluble and degradable pigments” (Bioorg Med Chem Lett, 2014):
The source made the active and inactive calls.

Columns and labels:
[1] = target: T1, Tyrosinase (Agaricus bisporus) (UniProt O42713); assay: Induction of eumelanogenesis assessed as mushroom tyrosinase-mediated simulation of eumelanogenesis by measuring oxidation of L-DOPA at 4.5 to 184.4 mM after 48 hrs by Vis-spectrophotometer analysis in absence of glutathione and presence of H2O2
T1 sequence (whole entry): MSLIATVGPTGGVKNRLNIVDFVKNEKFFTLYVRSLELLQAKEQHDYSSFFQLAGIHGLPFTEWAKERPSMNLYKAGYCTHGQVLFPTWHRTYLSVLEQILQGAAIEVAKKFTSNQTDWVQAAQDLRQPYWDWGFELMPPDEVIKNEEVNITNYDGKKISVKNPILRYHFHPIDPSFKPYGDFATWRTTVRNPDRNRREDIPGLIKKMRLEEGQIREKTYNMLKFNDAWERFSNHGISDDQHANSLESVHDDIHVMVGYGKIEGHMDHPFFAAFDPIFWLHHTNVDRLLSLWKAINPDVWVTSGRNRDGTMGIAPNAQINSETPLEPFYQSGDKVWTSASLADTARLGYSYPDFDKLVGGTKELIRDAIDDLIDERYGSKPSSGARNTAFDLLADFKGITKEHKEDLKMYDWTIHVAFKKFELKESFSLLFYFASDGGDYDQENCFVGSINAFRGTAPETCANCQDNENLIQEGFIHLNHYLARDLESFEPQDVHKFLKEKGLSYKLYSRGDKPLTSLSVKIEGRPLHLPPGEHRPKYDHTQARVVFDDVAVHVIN

[2] = target: T1, Tyrosinase (Agaricus bisporus); assay: Induction of pheomelanogenesis assessed as mushroom tyrosinase-mediated simulation of pheomelanogenesis by measuring oxidation of L-DOPA at 4.5 to 184.4 mM after 48 hrs by Vis-spectrophotometer analysis in presence of 0.65 to 3.2 mM of glutathione
[3] = target: T1, Tyrosinase (Agaricus bisporus); assay: Inhibition of mushroom tyrosinase-mediated simulation of pheomelanogenesis assessed as oxidation of L-DOPA at 4.5 to 184.4 mM after 48 hrs by Vis-spectrophotometer analysis in presence of 16.3 to 81.3 mM of glutathione
[4] = target: T1, Tyrosinase (Agaricus bisporus); assay: Induction of pheomelanogenesis assessed as mushroom tyrosinase-mediated simulation of pheomelanogenesis by measuring oxidation of L-DOPA at 4.5 to 184.4 mM after 48 hrs by Vis-spectrophotometer analysis in presence of 0.65 to 3.2 mM of glutathione and H2O2
[5] = target: T1, Tyrosinase (Agaricus bisporus); assay: Induction of eumelanogenesis assessed as mushroom tyrosinase-mediated simulation of eumelanogenesis by measuring oxidation of L-DOPA at 4.5 to 184.4 mM after 48 hrs by Vis-spectrophotometer analysis in absence of glutathione

CCCCS(=N)(=O)CCC(N)C(=O)O (racemic)
active: Activity [1] | Activity [2] | inhibition [3] | Activity [4] | Activity [5]
